Measurements reported in PubChem BioAssay (NCI).
Values joined by “and” are separate entries in the source; they are usually repeats but may differ in a detail not shown here. Identical values can stand only once.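 The compound was tested at five concentrations on cells cultured in 96-well plates, with a 48-hour exposure period. GI50 = concentration required for 50% inhibition of growth. Definition used: TGI = concentration required for complete inhibition of growth.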 Active and inactive are the calls of the source. No stated cut-off is given here; in the data, active means GI50 below about 0.43 µM; inactive means the rest.

Columns and labels:
Assay in all cases: growth of human tumour cells (NCI), 48 h
OVCAR-8 ovarian = test system: OVCAR-8 ovarian
XF 498 CNS = test system: XF 498 CNS
786-0 renal = test system: 786-0 renal
OVCAR-5 ovarian = test system: OVCAR-5 ovarian
MOLT-4 leukemia = test system: MOLT-4 leukemia
KM12 colon = test system: KM12 colon
K-562 leukemia = test system: K-562 leukemia
HOP-62 NSCLC = test system: HOP-62 NSCLC
SK-MEL-28 melanoma = test system: SK-MEL-28 melanoma
NCI-H522 lung = test system: NCI-H522 lung
SK-MEL-5 melanoma = test system: SK-MEL-5 melanoma
UACC-62 melanoma = test system: UACC-62 melanoma
CCRF-CEM leukemia = test system: CCRF-CEM leukemia
SF-268 CNS = test system: SF-268 CNS
OVCAR-4 ovarian = test system: OVCAR-4 ovarian
M19-MEL melanoma = test system: M19-MEL melanoma
KM20L2 colon = test system: KM20L2 colon
UO-31 renal = test system: UO-31 renal
RPMI-8226 leukemia = test system: RPMI-8226 leukemia
UACC-257 melanoma = test system: UACC-257 melanoma
SNB-75 CNS = test system: SNB-75 CNS
CAKI-1 renal = test system: CAKI-1 renal
SK-MEL-2 melanoma = test system: SK-MEL-2 melanoma
M14 melanoma = test system: M14 melanoma
SK-OV-3 ovarian = test system: SK-OV-3 ovarian
NCI-H460 lung = test system: NCI-H460 lung
NCI-H23 lung = test system: NCI-H23 lung
ACHN renal = test system: ACHN renal
SNB-78 CNS = test system: SNB-78 CNS
A549 NSCLC = test system: A549 NSCLC
SF-295 CNS = test system: SF-295 CNS
DLD-1 colon = test system: DLD-1 colon
A498 renal = test system: A498 renal
SW-620 colon = test system: SW-620 colon
HCC-2998 colon = test system: HCC-2998 colon
EKVX NSCLC = test system: EKVX NSCLC
U251 CNS = test system: U251 CNS
SN12C renal = test system: SN12C renal
LXFL 529 NSCLC = test system: LXFL 529 NSCLC
OVCAR-3 ovarian = test system: OVCAR-3 ovarian
MALME-3M melanoma = test system: MALME-3M melanoma
COLO 205 colon = test system: COLO 205 colon
TK-10 renal = test system: TK-10 renal
HT29 colon = test system: HT29 colon
DMS 114 small cell lung = test system: DMS 114 small cell lung
IGROV1 ovarian = test system: IGROV1 ovarian
SF-539 CNS = test system: SF-539 CNS
RXF 393 renal = test system: RXF 393 renal
HCT-116 colon = test system: HCT-116 colon
HOP-92 NSCLC = test system: HOP-92 NSCLC
SNB-19 CNS = test system: SNB-19 CNS
SR leukemia = test system: SR leukemia

COc1cc2ccc3c4cc(OC)c(OCc5ccccc5)cc4cnc3c2cc1OC
> 100 µM: TGI (OVCAR-8 ovarian) | TGI (XF 498 CNS) | TGI (786-0 renal) | TGI (OVCAR-5 ovarian) | TGI (MOLT-4 leukemia) | TGI (KM12 colon) | TGI (K-562 leukemia) | TGI (HOP-62 NSCLC) | TGI (SK-MEL-28 melanoma) | TGI (NCI-H522 lung) | TGI (SK-MEL-5 melanoma) | TGI (UACC-62 melanoma) | TGI (CCRF-CEM leukemia) | TGI (SF-268 CNS) | TGI (OVCAR-4 ovarian) | TGI (M19-MEL melanoma) | TGI (KM20L2 colon) | TGI (UO-31 renal) | TGI (RPMI-8226 leukemia) | TGI (UACC-257 melanoma) | TGI (SNB-75 CNS) | TGI (CAKI-1 renal) | TGI (SK-MEL-2 melanoma) | TGI (M14 melanoma) | TGI (SK-OV-3 ovarian) | TGI (NCI-H460 lung) | TGI (NCI-H23 lung) | TGI (ACHN renal) | TGI (SNB-78 CNS) | TGI (A549 NSCLC) | TGI (SF-295 CNS) | TGI (DLD-1 colon) | TGI (A498 renal) | TGI (SW-620 colon) | TGI (HCC-2998 colon) | TGI (EKVX NSCLC) | TGI (U251 CNS) | TGI (SN12C renal) | TGI (LXFL 529 NSCLC) | TGI (OVCAR-3 ovarian) | TGI (MALME-3M melanoma) | TGI (COLO 205 colon) | TGI (TK-10 renal) | TGI (HT29 colon) | TGI (DMS 114 small cell lung) | TGI (IGROV1 ovarian)

CCOC(=O)c1sc2c(C(=O)OCC)n3ccccc3c2c1N
75.4 µM: TGI (SF-539 CNS)
90.9 µM and 65.5 µM: TGI (SNB-19 CNS)
63 µM and 68 µM: TGI (NCI-H522 lung)
99.1 µM: TGI (SNB-75 CNS)
50 µM: TGI (RXF 393 renal)
57.3 µM and 70.7 µM: TGI (HOP-62 NSCLC)
67.1 µM: TGI (UO-31 renal)
48 µM: TGI (XF 498 CNS)
inactive: GI50 (OVCAR-8 ovarian) 52.1 µM | GI50 (XF 498 CNS) 33.9 µM | outcome (MOLT-4 leukemia) | GI50 (HOP-62 NSCLC) 22.5 µM | GI50 (SF-539 CNS) 22.3 µM | GI50 (NCI-H522 lung) 24.3 µM | GI50 (SF-268 CNS) 36.6 µM | GI50 (UO-31 renal) 49.2 µM | outcome (RPMI-8226 leukemia) | GI50 (NCI-H23 lung) 74.2 µM | GI50 (ACHN renal) 89.4 µM | GI50 (SNB-78 CNS) 27.3 µM | GI50 (HCT-116 colon) 35.9 µM | GI50 (HOP-92 NSCLC) 23.8 µM | GI50 (SNB-19 CNS) 23.9 µM | GI50 (EKVX NSCLC) 70 µM | GI50 (SN12C renal) 73.5 µM | outcome (SR leukemia) | GI50 (DMS 114 small cell lung) 47.5 µM
55.2 µM: TGI (HOP-92 NSCLC)
